Results from US4338331A, “Isoindoline derivative and a therapeutic composition thereof” (priority 1979, dated 1982).
Several values for one entry are separate records, joined by “and”; a condition that tells them apart may be missing. Equal values may be shown once.

Experiments:
Type in all cases: in vivo, Wistar rat
male rats = assay: Diuretic and saluretic activity: excretion of a load of distilled water (TABLE 2); settings: 5 mg/kg oral + aqueous load
Experimental: (§1) Both the CM/1 and the Indapamide were administered orally after being suitably dissolved in the following solvent:
(§2) The controls were treated with an equal volume of solvent. The experiments were carried out on animals which had regularly fasted for at least 12 hours, but had free access to water.
(§3) The sodium and potassium in the urine were determined by a photometric method.
The rats were then immediately placed in individual metabolic cages. The urine was collected over 4 hours. The quantity has been expressed in the usual manner as a percentage of the volume administered.
Sodium and potassium were also analysed, and these have been expressed as mEq/4h.
After two days, in the preceding manner, the same rats were treated with Indapamide, and after a further two days with the product CM/1. In the interval between one test and the other, the rats were housed and fed in the normal manner. The dose used for both compounds was the same as previously, i.e. 5 mg/kg.

female Wistar rats [1] = assay: Diuretic and saluretic activity: excretion of an aqueous saline load (TABLE 1); settings: 5 mg/kg oral
Experimental: as §1, §2, §3
The effect on the excretion of an aqueous saline load was first checked. 18 female Wistar rats were used divided into three groups, one of 8 and two of 5, and these were treated in the following manner:
GROUP A: CONTROLS 1 ml of solvent made up to 50 ml with 0.9% sodium chloride solution, administered by gastric probe, per kg of body weight (=50 ml/kg in terms of volume);
GROUP B: INDAPAMIDE 5 mg/kg in 1 ml/kg of solvent made up to 50 ml/kg with sodium chloride solution, administered by gastric probe;
GROUP C: CM/1,5 mg/kg using the same method as for the Indapamide.
The rats were placed immediately in individual metabolic cages for collecting the urine during the three hours subsequent to the load. The quantity of urine excreted is given as a percentage of the quantity administered. The sodium and potassium are expressed in mEq/3h.
Values of P less than 0.05 have been considered significant.

female Wistar rats [2] = assay: Effect on spontaneous diuresis (TABLE 3); settings: 5 mg/kg oral; for Excreted sodium/potassium ratio: 12 h; for Potassium excretion / Sodium excretion: spontaneous diuresis
Experimental: These investigations were carried out on Wistar rats of both sexes, having a body weight which is specified in each case in the relative tables, which compare the results with Indapamide. Both the CM/1 and the Indapamide were administered orally after being suitably dissolved in the following solvent:
as §2, §3
Finally, the effect on the new product of spontaneous diuresis was determined.
These investigations were carried out on 15 female Wistar rats having a body weight varying from 230 to 260 g, and divided at random into three groups of 5. The animals were kept in individual metabolic cages overnight for a period of 12 hours in order to collect the urine spontaneously excreted. One group was treated as usual with 1 ml/kg of solvent by means of a gastric probe, and the other two were treated respectively with 5 mg/kg of Indapamide and 5 mg/kg of CM/1. The sodium and potassium were analysed as usual in the urine collected.

[3] = saline load, mean ± standard error, n = 5

CC1Cc2ccccc2N1NC(=O)c1ccc(Cl)c(S(N)(=O)=O)c1 (stereo not drawn) [Indapamide, N-(3-sulphamyl-4-chlorobenzamido)-2-methylindoline, reference compound]
diuretic and saluretic action (male rats): significant diuretic and saluretic action
RATIO Na/K (sodium to potassium excreted) (male rats; 4 h, average): 1.6764
Cumulative percent excretion at 1 hour from load (male rats; individual rats): 25.8% and 35.7% and 0.0% and 27.6% and 51.6%
Cumulative percent excretion at 2 hours from load (male rats; individual rats): 83.9% and 92.8% and 42.9% and 82.8% and 101.7%
Cumulative percent excretion at 3 hours from load (male rats; individual rats): 116.1% and 107.2% and 85.8% and 110.4% and 121.1%
Cumulative percent excretion at 4 hours from load (male rats; individual rats): 138.7% and 107.2% and 114.4% and 110.4% and 140.5%
Potassium excretion (male rats; individual rats): 0.00998 mEq/4h and 0.00543 mEq/4h and 0.00814 mEq/4h and 0.00692 mEq/4h and 0.01579 mEq/4h
Sodium excretion (male rats; individual rats): 0.01808 mEq/4h and 0.00771 mEq/4h and 0.01403 mEq/4h and 0.01077 mEq/4h and 0.02694 mEq/4h
Cumulative percent excretion at 1 hour from load (male rats; mean of 5 rats): 28.14%
Cumulative percent excretion at 2 hours from load (male rats; mean of 5 rats): 80.82%
Cumulative percent excretion at 3 hours from load (male rats; mean of 5 rats): 108.12%
Cumulative percent excretion at 4 hours from load (male rats; mean of 5 rats): 122.24 ± 4.47%
Potassium excretion (male rats; mean of 5 rats): 0.009252 mEq/4h
Sodium excretion (male rats; mean of 5 rats): 0.01551 mEq/4h
Urine excretion of load in percent of quantity administered (cumulative excretion), 1 hour (female Wistar rats [1]; individual rats): 16.7% and 12.5% and 8.7% and 6.7%
Urine excretion of load in percent of quantity administered (cumulative excretion), 2 hours (female Wistar rats [1]; individual rats): 50.0% and 37.5% and 26.1% and 30.8% and 52.2%
Urine excretion of load in percent of quantity administered (cumulative excretion), 3 hours (female Wistar rats [1]; individual rats): 83.3% and 81.2% and 65.2% and 69.2% and 100.0%
Urine excretion of load in percent of quantity administered (cumulative excretion), 1 hour (female Wistar rats [1]; mean ± standard error, n = 5): 10.66 ± 1.77%
Urine excretion of load in percent of quantity administered (cumulative excretion), 2 hours (female Wistar rats [1]; mean ± standard error, n = 5): 39.32 ± 5.15%
diuretic and saluretic effect (female Wistar rats [1]; relative to the controls): significant diuretic and saluretic effect relative to the controls
ratio of the sodium to the potassium excreted during the 3 hours (female Wistar rats [1]; saline load): 4.48
Potassium excretion (female Wistar rats [1]; saline load, individual rats): 0.36 mEq/3h and 0.38 mEq/3h and 0.28 mEq/3h and 0.31 mEq/3h and 0.33 mEq/3h
Sodium excretion (female Wistar rats [1]; saline load, individual rats): 1.50 mEg/3h and 1.45 mEg/3h and 1.33 mEg/3h and 1.61 mEg/3h and 1.55 mEg/3h
Potassium excretion (female Wistar rats [1]; [3]): 0.332 ± 0.0177 mEq/3h
Sodium excretion (female Wistar rats [1]; [3]): 1.488 ± 0.047 mEg/3h
excreted sodium and potassium (female Wistar rats [1]; versus controls): significantly higher than the controls
diuretic action (female Wistar rats [2]): marked diuretic action
sodium and potassium excretion (female Wistar rats [2]): increased
Excreted sodium/potassium ratio (female Wistar rats [2]; individual rats): 1.170 and 1.417 and 1.803 and 1.346 and 1.555
Excreted sodium/potassium ratio (female Wistar rats [2]; mean ± standard error, n = 5): 1.4582 ± 0.106
ml of urine collected in 12 hours (female Wistar rats [2]; individual rats): 11.5 mL and 13.7 mL and 18.6 mL and 14.5 mL and 15.5 mL
ml of urine collected in 12 hours (female Wistar rats [2]; mean ± standard error, n = 5): 14.76 ± 1.16 mL
Potassium excretion (female Wistar rats [2]; individual rats): 4.560 mEq/12h and 3.356 mEq/12h and 3.760 mEq/12h and 5.776 mEq/12h and 4.352 mEq/12h
Sodium excretion (female Wistar rats [2]; individual rats): 5.335 mEq/12h and 4.756 mEq/12h and 6.780 mEq/12h and 7.775 mEq/12h and 6.767 mEq/12h
Potassium excretion (female Wistar rats [2]; mean ± standard error, n = 5): 4.3608 ± 0.413 mEq/12h
Sodium excretion (female Wistar rats [2]; mean ± standard error, n = 5): 6.2826 ± 0.544 mEq/12h
